Patent US7687071B1, “Nanoparticulate core shell systems and the use thereof in pharmaceutical and cosmetic preparation” (BASF Aktiengesellschaft, priority 1998, dated 2010)

Test: Wide-angle X-ray scattering
Type: physicochemical
Settings: FIG. 1
Description: The scattering plots for active ingredient (top) and dry powder from 1b) (bottom) are depicted in FIG. 1. The ritonavir starting material is crystalline, as proven by the X-ray diagram which is characterized by a number of sharp interferences. […] This also applies to the ancillary substances lactose and ascorbyl palmitate which are otherwise crystalline.

In the case of `CC(C)c1nc(CN(C)C(=O)N[C@H](C(=O)N[C@@H](Cc2ccccc2)C[C@H](O)[C@H](Cc2ccccc2)NC(=O)OCc2cncs2)C(C)C)cs1` [ritonavir], the “solid state by X-ray scattering plot” value is reported as “crystalline”.
